In US20200383969A1, “RIMEGEPANT FOR CGRP RELATED DISORDERS” (Biohaven Pharmaceutical Holding Company Ltd., priority 2018, published 2020):

Legend:
[1] = Study 302 (BHV3000-302), Phase 3, rimegepant 75 mg tablet vs placebo, acute treatment of migraine; format: in vivo, human
Excerpt: Clinical Trial—BHV3000-302 : Phase 3: Double-Blind, Randomized, Placebo-Controlled, Safety and Efficacy Trial of BHV-3000 (Rimegepant) for the Acute Treatment of Migraine (ClinicalTrials.gov Identifier: NCT03237845) • Study Type: Interventional (Clinical Trial) • Actual Enrollment: 1503 participants • Allocation: Randomized • Intervention Model: Parallel Assignment • Intervention Model Description: Double-blind to Sponsor, Investigator and Subject • Masking: Triple (Participant, Care Provider, Investigator) • Masking Description: Double-blind to Sponsor, Investigator and Subject • Primary Purpose: Treatment • Official Title: BHV3000-302: Phase 3: Double-Blind, Randomized, Placebo-Controlled, Safety and Efficacy Trial of BHV-3000 (Rimegepant) for the Acute Treatment of Migraine • Actual Study Start Date : Jul. 26, 2017 • Primary Completion Date : Jan. 25, 2018 • Study Completion Date : Jan. 31, 2018 • 1. Pain Freedom of rimegepant (75 mg tablet) compared with placebo in the acute treatment of migraine will be measured using the number of evaluable subjects that report no pain at 2 hours post-dose. [Time Frame: Two hours post dose] • Pain will be measured on a 4 point Likert scale (0=none, 1=mild, 2=moderate, 3=severe) • 2. Freedom from the most bothersome symptom (MBS) of rimegepant (75 mg tablet) compared with placebo will be measured using the number of evaluable subjects that report the absence of their MBS at 2 hours post-dose. [Time Frame: Two hours post dose] • The MBS (nausea, phonophobia or photophobia) will measured using a binary scale (0=absent, 1=present). • 1. […] [Time Frame: 2 hours -24 hours post-dose] • Sustained Pain Freedom as measured by a 4 point numeric rating scale (None, Mild, Moderate, Severe) • 2. Rimegepant (75 mg tablet) compared to placebo by tabulating the number of subjects that report the absence of photophobia at 2 hours post-dose in the subset of subjects that reported the presence of photophobia at headache baseline. [Time Frame: 2 hours post-dose] • Freedom from Photophobia • 3. Rimegepant (75 mg tablet) compared to placebo by tabulating the number of subjects that report the absence of phonophobia at 2 hours post-dose in the subset of subjects that reported the presence of phonophobia at headache baseline. [Time Frame: 2 hours post-dose] • Freedom from Phonophobia • 4. To measure rimegepant (75 mg tablet) compared to placebo on Pain Relief, at 2 hours post-dose, that report a pain level of moderate or severe at baseline and then report a pain level of none or mild. [Time Frame: 2 hours post-dose] • Pain Relief as measured by a 4 point numeric rating scale (None, Mild, Moderate, Severe) • 5. Freedom from Nausea will by tabulating the number of subjects that report the absence of nausea at 2 hours post-dose in the subset of subjects that reported the presence of nausea at headache baseline. [Time Frame: 2 hours post-dose] • Freedom from Nausea • 6. To measure rimegepant (75 mg tablet) compared to placebo on the probability of requiring rescue medication will be assessed using the number of subjects that take rescue medication within […] administration of study medication (BHV3000 or placebo). [Time Frame: up to 24 hours post-dose] • Requiring Rescue Medication • 7. […] [Time Frame: 2 hours-48 hours post-dose] • Sustained Pain Freedom as measured by a 4 point numeric rating scale (None, Mild, Moderate, Severe) • 8. […] [Time Frame: 2 hours-24 hours post-dose] • Sustained Pain Relief as measured by a 4 point numeric rating scale (None, Mild, Moderate, Severe) • 9. […] [Time Frame: 2 hours-48 hours post-dose] • Sustained Pain Relief as measured by a 4 point numeric rating scale (None, Mild, Moderate, Severe) • 10. Rimegepant (75 mg tablet) relative to placebo on the proportion of subjects able to function normally, at 2 hours, using the number of subjects that self-report as “normal” on the functional disability scale. [Time Frame: 2 hours post-dose] • Functional Disability Score • 11. […]

[2] = Study 201 (BHV3000-201), open label long-term safety study, rimegepant 75 mg, interim analysis; format: in vivo, human
Excerpt: Clinical Trial-BHV3000-201: Open Label Safety Study in Acute Treatment of Migraine (ClinicalTrials.gov Identifier: NCT 03266588) • Study Type: Interventional (Clinical Trial) • Estimated Enrollment: 2000 participants • Intervention Model: Single Group Assignment • Masking: None (Open Label) • Primary Purpose: Treatment • Official Title: A Multicenter, Open Label Long-Term Safety Study of BHV3000 in the Acute Treatment of Migraine • Actual Study Start Date: Aug. 30, 2017 • Estimated Primary Completion Date: July 2019 • Estimated Study Completion Date: July 2019 • 1. To assess the safety and tolerability of rimegepant (BHV-3000) by measuring the frequency and severity of adverse events and discontinuations due to adverse events [Time Frame: 52 weeks] Number of subjects with treatment-emergent adverse events as assessed through laboratory tests, ECGs, physical exam findings (safety and tolerability) • 1. ALT or […] with total bilirubin>2×ULN [Time Frame: 52 weeks] elevated liver function tests • 2. hepatic related adverse events and hepatic related adverse events that lead to discontinuation [Time Frame: 52 weeks] adverse events related to liver Results from the clinical trial described in Example 10 are summarized as follows. […] Patients were allowed to treat migraine attacks of all severities (mild to severe) up to once daily for a full year. The initial results for hepatic safety and tolerability of rimegepant 75 mg in study participants is based upon review of both adverse events and regularly scheduled liver function tests. Interim hepatic data were reviewed by an external and independent panel of liver experts. […] In the aggregate, it was noted that compared to migraine trials with drugs other than rimegepant, there was a very low incidence of overall elevations of liver function test abnormalities in rimegepant treated patients (1.0% incidence of serum ALT or AST>3× ULN). Subjects will continue to participate in Study 201 with additional data analyses to be submitted in the NDA and required 120-day safety updates. In addition to the interim safety analysis, data from subjects was assessed to determine reductions in the number of headache days per month.

- Bilirubin elevations greater than 2 times ULN ([1]; 75 mg tablet): no bilirubin elevations
- Transaminase level greater than 3 times ULN ([1]; 75 mg tablet): No subject
SMILES: N[C@@H]1c2cccnc2[C@H](OC(=O)N2CCC(n3c(=O)[nH]c4ncccc43)CC2)CC[C@H]1c1cccc(F)c1F [Rimegepant, [(5S,6S,9R)-5-amino-6-(2,3-difluorophenyl)-6,7,8,9-tetrahydro-5H-cyclohepta[b]pyridin-9-yl] 4-(2-oxo-3H-imidazo[4,5-b]pyridin-1-yl)piperidine-1-carboxylate]
- SAEs related to the study drug [1]: No SAEs
- AE nausea, incidence ([1]; 75 mg tablet): 1.8%
- AE nausea, n/N ([1]; 75 mg tablet): 10/543
- AE urinary tract infection, incidence ([1]; 75 mg tablet): 1.5%
- AE urinary tract infection, n/N ([1]; 75 mg tablet): 8/543
- Serum ALT or AST > ULN, n/N ([1]; 75 mg tablet): 13/543
- Serum ALT or AST > ULN, subjects ([1]; 75 mg tablet): 2.4%
- Normal function at 2 hours (functional disability) vs placebo ([1]; P<0.0001): greater proportion
- Serious AEs, number of subjects ([1]; back pain): 1
- Sustained pain relief from 2 through 48 hours postdose vs placebo ([1]; single dose, no rescue medication, P<0.0001): superiority versus placebo
- Sustained pain freedom from 2 through 48 hours postdose vs placebo ([1]; single dose, no rescue medication, P=0.0181): superiority versus placebo
- >=30.0% decrease in migraines (headache days) per month, percent of subjects ([2]; Study 201, Overall, n 1731, treatment vs observation phase): 30.2%
- Onset of reductions in the mean number of headache days per month ([2]; Study 201, continued in subsequent months): as early as the first month
- Hy's Law cases ([2]; Study 201 interim): no Hy's Law cases
- Incidence of serum ALT or AST>3× ULN ([2]; Study 201 interim): 1.0%
- Safety and tolerability of long-term dosing ([2]; Study 201 interim analysis, 75 mg up to once daily): consistent with the profile observed in phase 1-3 studies to date
- Liver safety signal ([2]; Study 201 interim, including near-daily dosing (≥15 doses/month)): no liver safety signal detected
- Liver cases assessed as probably related to study drug ([2]; Study 201 interim, independent panel of liver experts): no liver cases
